In PubChem BioAssay (NCI) one finds TGI and GI50 data, which are given here for eleven compounds.

Among the test systems are HT29 colon; ACHN renal; K-562 leukemia; SNB-19 CNS; UO-31 renal; OVCAR-3 ovarian; HCC-2998 colon; NCI-H460 lung; UACC-257 melanoma; HL-60(TB) leukemia.
What all share (experiment): inhibition of tumour cell growth, NCI panel, 48 h

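Compound exposure: 48 hours, 5 concentrations, 96-well plates. At the GI50, growth is halved. TGI denotes the concentration required for complete inhibition of growth.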 Where only a bound is given, the exact number is not on record here.

As for `Cc1ccc(C)c(NC(=O)CCC(=O)CC(=O)C(C)(C)C)c1`, the TGI in the test on HT29 colon, in the test on ACHN renal, with K-562 leukemia, in the test on SNB-19 CNS, with UO-31 renal and in the test with OVCAR-3 ovarian was > 100 µM each time. In addition, the TGI in the test on HCC-2998 colon, with NCI-H460 lung and in the test with UACC-257 melanoma was > 100 µM each time.
On to `c1ccc(CNc2nc(Nc3ccc(-c4nc5ccccc5[nH]4)cc3)c3cn[nH]c3n2)cc1`, for which the GI50 with HT29 colon is 2.09 µM; with HL-60(TB) leukemia, 2.54 µM; in the test with ACHN renal it was 2.29 µM; with SNB-19 CNS, 4.27 µM; with UO-31 renal, 2.02 µM; with OVCAR-3 ovarian it was 1.61 µM. Also, the GI50 in the test on HCC-2998 colon was 1.91 µM; in the test with NCI-H460 lung, 2.18 µM; in the test with UACC-257 melanoma, 1.61 µM. Also, the TGI stood at 5.57 µM in the test on HT29 colon; 7.44 µM in the test with HL-60(TB) leukemia; 6.5 µM in the test with ACHN renal; 31.3 µM with SNB-19 CNS; 6.02 µM in the test with UO-31 renal; 3.3 µM with OVCAR-3 ovarian. Further, the figures for the TGI in the test with HCC-2998 colon, in the test on NCI-H460 lung and in the test on UACC-257 melanoma were 3.78 µM, 5.76 µM and 3.4 µM, respectively.
With `COc1ccc(C(NCCNC(c2ccc(OC)c(OC)c2)c2cc3c(cc2O)OCO3)c2cc3c(cc2O)OCO3)cc1OC` (stereo unspecified), the TGI with HT29 colon is 9.69 µM; with HL-60(TB) leukemia, 4.69 µM; in the test on ACHN renal it was 7.95 µM; with K-562 leukemia, > 28.1 µM; in the test on SNB-19 CNS it was 15.4 µM; in the test on UO-31 renal it was 8.27 µM. Moreover, the TGI came out at 6.82 µM with OVCAR-3 ovarian, 18.3 µM in the test with NCI-H460 lung and 9.97 µM in the test on UACC-257 melanoma.
For the compound `O=C1NCC2=C1CCC1c3ccccc3CCN21` (stereo unspecified), the TGI in the test with HT29 colon, with HL-60(TB) leukemia, with ACHN renal, in the test with SNB-19 CNS, with UO-31 renal and in the test with OVCAR-3 ovarian was > 100 µM throughout. Moreover, the TGI in the test on HCC-2998 colon, with NCI-H460 lung and in the test on UACC-257 melanoma was > 100 µM in each case.
Turning to `CC1(C)OCC(C2OC(On3nnc4ccc(Cl)cc43)C3OC(C)(C)OC23)O1` (stereo unspecified), the TGI in the test with HT29 colon, in the test on HL-60(TB) leukemia, in the test on ACHN renal, in the test on K-562 leukemia, in the test with SNB-19 CNS and with OVCAR-3 ovarian was > 100 µM in each case. Further, the TGI in the test on NCI-H460 lung and in the test with UACC-257 melanoma was > 100 µM each time.
`N/C(=N\N=C=C1C(=O)Nc2ccc(F)cc21)NO`: the TGI in the test with HT29 colon, with HL-60(TB) leukemia, in the test on ACHN renal, in the test on K-562 leukemia, in the test with OVCAR-3 ovarian and in the test with HCC-2998 colon was > 100 µM in each case. The TGI with NCI-H460 lung and in the test on UACC-257 melanoma was > 100 µM throughout.
For `Cc1ccc(S(=O)(=O)OC(C=O)C(O)C(O)COC(c2ccccc2)(c2ccccc2)c2ccccc2)cc1` (stereo unspecified), the TGI was 24.9 µM in the test with HT29 colon; 28.7 µM in the test on ACHN renal; 35 µM in the test with K-562 leukemia; 31.7 µM with SNB-19 CNS; 30.4 µM with UO-31 renal; 28.1 µM with OVCAR-3 ovarian. In addition, the TGI with HCC-2998 colon was 24.3 µM; with NCI-H460 lung, 26.9 µM; in the test on UACC-257 melanoma it was 25.9 µM.
As for `COc1ccc2c(c1)C(=O)/C(=C/c1ccc(OCC(=O)c3ccc(Cl)cc3)cc1)O2`, the GI50 with HT29 colon is 20.1 µM; in the test on HL-60(TB) leukemia, 2.89 µM; in the test with ACHN renal it was 15.9 µM; in the test on K-562 leukemia, 1.77 µM; in the test with SNB-19 CNS, 48.2 µM; in the test on UO-31 renal it was 10.4 µM. For the same compound, the GI50 was 12.3 µM with OVCAR-3 ovarian, 29.7 µM with NCI-H460 lung and > 100 µM with UACC-257 melanoma. The TGI with HT29 colon was 40.7 µM; in the test on HL-60(TB) leukemia, 16.9 µM; in the test on ACHN renal, 30.5 µM; in the test with K-562 leukemia, 4.64 µM; with SNB-19 CNS, > 100 µM; in the test with UO-31 renal it was 25.6 µM. For the same compound, the values for the TGI in the test on OVCAR-3 ovarian, in the test with NCI-H460 lung and in the test with UACC-257 melanoma were 24.8 µM, > 100 µM and > 100 µM, respectively.
For the compound `O=C1/C(=C/c2ccccc2Cl)COc2ccccc21`, the TGI in the test with HT29 colon was found to be 45.1 µM; in the test with HL-60(TB) leukemia it was 58 µM; in the test on ACHN renal, 34.6 µM; in the test with K-562 leukemia, 29.7 µM; in the test with UO-31 renal, 28.3 µM; in the test with OVCAR-3 ovarian, 34.8 µM. Further, the values for the TGI with HCC-2998 colon, in the test on NCI-H460 lung and with UACC-257 melanoma were 35.9 µM, 43.6 µM and 34.9 µM, respectively.
Take `C=C(CNCCc1ccc(O)cc1)[C@@H]1CC[C@]2(CO)CC[C@]3(C)[C@H](CC[C@@H]4[C@@]5(C)CCC(NCCO)C(C)(C)[C@@H]5CC[C@]43C)[C@@H]12` (stereo partly specified): the GI50 in the test with HT29 colon was 0.395 µM; in the test with ACHN renal it was 1.79 µM; with SNB-19 CNS, 1.63 µM; in the test with UO-31 renal it was 1.47 µM; with OVCAR-3 ovarian, 1.73 µM; in the test on HCC-2998 colon, 1.57 µM. The GI50 in the test with NCI-H460 lung is 1.75 µM; with UACC-257 melanoma it was 1.86 µM. Moreover, the TGI in the test on HT29 colon came out at 1.57 µM; in the test with ACHN renal, 3.2 µM; in the test on SNB-19 CNS, 3.03 µM; with UO-31 renal, 2.86 µM; in the test with OVCAR-3 ovarian, 3.51 µM; with HCC-2998 colon, 3.21 µM. For the same compound, the results for the TGI in the test on NCI-H460 lung and with UACC-257 melanoma were 3.29 µM and 3.27 µM, respectively.
Regarding `Cc1nc(N=C(N)N)nc2ccc3ccccc3c12`, the GI50 in the test with HT29 colon is 1.95 µM; in the test with HL-60(TB) leukemia, 2.25 µM; with ACHN renal, 1.79 µM; in the test on K-562 leukemia, 1.43 µM; in the test with SNB-19 CNS, 0.942 µM; with UO-31 renal, 2.14 µM. In addition, the figures for the GI50 with OVCAR-3 ovarian, in the test with NCI-H460 lung and in the test with UACC-257 melanoma were 1.32 µM, 2.31 µM and 1.46 µM, respectively. Besides, the TGI with HT29 colon was 4.96 µM; in the test with HL-60(TB) leukemia it was 5.41 µM; in the test with ACHN renal, 5.15 µM; in the test on K-562 leukemia, 6.13 µM; in the test with SNB-19 CNS it was 4.89 µM; with UO-31 renal, 8.52 µM. In addition, the TGI amounted to 3.77 µM in the test on OVCAR-3 ovarian, 6.56 µM with NCI-H460 lung and 4.17 µM with UACC-257 melanoma.
